This test concerns the target SARS-CoV-2 S D614G (Severe acute respiratory syndrome coronavirus 2, UniProt P0DTC2, D614G). The format is cell-based. The note with it: read-out: IC90, inhibition of S-mediated cell–cell fusion, SARS-CoV-2 D614G.

As to “Ac-DISQINASVVNIEYEIKKLEEVAKKLEESLIDLQEL-NH2 [QE]”, the IC90 turned out to be 70 ± 10 nM. As for “Ac-PDVDLGDISQINASVVNIEYEIKKLEEVAKKLEESLIDLQEL-NH2 [QE-EXT]”, the 90% effect concentration (IC90) came to 90 ± 20 nM. In the case of “Ac-SIDQINATFVDIEYEIKKLEEVAKKLEESYIDLKEL-NH2 [SK]” it was 96 ± 20 nM.

As a reminder, the IC90 is the concentration at which the effect reaches the 90% level.

The values above are taken from article PMC11915835, “Enhancing the solubility of SARS-CoV-2 inhibitors to increase future prospects for clinical development” (Journal of Virology, 2025).
